The text below walks through data of ChEMBL document CHEMBL3044558, “Structure-activity relationship development of dihaloaryl triazole compounds as insecticides and acaricides. 1. Phenyl thiophen-2-yl triazoles” (2007).

The source made the active and inactive calls. The rule behind the calls is not given here.

One assay concerns Heliothis virescens. In words: Insecticidal activity against Heliothis virescens (tobacco budworm) second-instar larvae infested on 400 ppm compound pre-treated cotton cotyledon disk assessed as insect mortality measured 5 days post compound treatment under green house conditions. The class given is functional.
A further assay concerns Spodoptera exigua. The assay is described as follows: Insecticidal activity against Spodoptera exigua second-instar larvae feeded on 400 ppm compound treated lepidopteran diet assessed as insect mortality measured 5 days post compound treatment under green house conditions. The class given is functional. The conditions noted are these: at 400 ppm.
Another assay has as its system Tetranychus urticae. In words: Insecticidal activity against female Tetranychus urticae (two-spotted spider mite) infested cotton leaf disks followed by 2.5 ppm compound spraying after oviposit assessed as insect mortality measured after 6 days post compound application under green house conditions. Type of assay: functional. The conditions noted are these: foliar, 144 h.

The test system of assay [1] is Aphis gossypii. The assay is described as follows: Insecticidal activity against Aphis gossypii (cotton aphid) infested one week old Crookneck squash plants assessed as insect mortality at 50 ppm measured after 3 days post compound application under green house conditions. Type of assay: functional. Conditions: 72 h.
Assay [2] has as its system Bemisia tabaci.
For a further assay, the system named is Trichoplusia ni. The assay is described as follows: Insecticidal activity against Trichoplusia ni (cabbage looper) second-instar larvae infested on 400 ppm compound pre-treated cabbage leaf disk assessed as insect mortality measured 5 days post compound treatment under green house conditions. Type of assay: functional. Conditions: at 400 ppm.
In assay [3] the test system is Bemisia tabaci. The assay is described as follows: Insecticidal activity against Bemisia tabaci (sweet potato whitefly) second-instar larvae infested five weeks old cotton plants followed by compound 250 ppm compound spraying after insect oviposit assessed as insect mortality measured 13 days post compound treatment under green house conditions. Type of assay: functional.

Assay [4] deals with Aphis gossypii.

Take `CCOc1ccc(-c2sc(-c3nc(-c4c(F)cccc4Cl)nn3C)c(C)c2C)cc1`: the mortality (commonly the share of the test organisms that died) was <50% in the assay with Heliothis virescens, 90% in the assay with Spodoptera exigua and 80% in the assay with Trichoplusia ni. In the assay on Tetranychus urticae, the mortality at 2.5 ppm came out at 90%. For the same compound, the mortality at 50 ppm in the assay with Aphis gossypii [1] is < 50%. In the assay on Bemisia tabaci [2], the mortality entry was “inactive”.
On to `Cc1cc(-c2ccc(F)cc2)sc1-c1nc(-c2c(F)cccc2Cl)nn1C`, for which the figures for the mortality in the assay with Heliothis virescens, in the assay with Spodoptera exigua and with Trichoplusia ni were 90%, 80% and 90%, respectively. Further, in the assay on Tetranychus urticae, the mortality at 2.5 ppm turned out to be 60%. Further, the mortality at 50 ppm with Aphis gossypii [1] was < 50%. The mortality entry with Bemisia tabaci [2] is “inactive”.
As to `Cc1cc(-c2ccc(Cl)cc2)sc1-c1nc(-c2c(F)cccc2Cl)nn1C`, the mortality in the assay on Heliothis virescens worked out at 90%; in the assay with Spodoptera exigua, 90%; with Bemisia tabaci [3], 60%; in the assay with Trichoplusia ni it was 90%. Besides, the mortality at 2.5 ppm in the assay on Tetranychus urticae is 90%. The mortality at 50 ppm in the assay with Aphis gossypii [1] was found to be 60%.
With `Cc1c(-c2ccc(OC(F)(F)F)cc2)sc(-c2nc(-c3c(F)cccc3Cl)nn2C)c1C`, the mortality in the assay on Heliothis virescens is given as <50%; with Spodoptera exigua it was 80%; with Bemisia tabaci [3] it was 70%; in the assay on Trichoplusia ni it was 90%. In addition, in the assay with Tetranychus urticae, the mortality at 2.5 ppm was determined as 90%. The mortality at 50 ppm in the assay with Aphis gossypii [1] was < 50%.
For `Cc1cc(-c2ccc3c(c2)COC3)sc1-c1nc(-c2c(F)cccc2Cl)nn1C`, the figures for the mortality in the assay with Heliothis virescens, in the assay on Spodoptera exigua and in the assay with Trichoplusia ni were 90%, 60% and 70%, respectively. The mortality result in the assay on Aphis gossypii [4] and in the assay on Bemisia tabaci [2] was “inactive” each time. Also, the mortality at 2.5 ppm in the assay on Tetranychus urticae stood at 80%.
`Cc1c(-c2ccc(OC(F)(F)C(F)C(F)(F)F)cc2)csc1-c1nc(-c2c(F)cccc2Cl)nn1C` (stereo not given): the mortality with Heliothis virescens came out at 90%; in the assay with Spodoptera exigua, 60%; in the assay on Bemisia tabaci [3], 90%; in the assay on Trichoplusia ni, 90%. Besides, the mortality at 2.5 ppm with Tetranychus urticae worked out at 90%. For the same compound, in the assay on Aphis gossypii [1], the mortality at 50 ppm amounted to 90%.
`Cc1cc(-c2ccc(OC(F)(F)C(F)C(F)(F)F)cc2)sc1-c1nc(-c2c(F)cccc2Cl)nn1C` (stereo not given): the mortality in the assay on Heliothis virescens is recorded as 90%; with Spodoptera exigua it was 80%; in the assay with Bemisia tabaci [3] it was <50%; in the assay with Trichoplusia ni, 90%. Besides, in the assay with Tetranychus urticae, the mortality at 2.5 ppm was 90%. In the assay on Aphis gossypii [1], the mortality at 50 ppm is 90%.
Consider `Cc1cc(-c2cccc(C(F)(F)F)c2)sc1-c1nc(-c2c(F)cccc2Cl)nn1C`, for which the mortality in the assay on Heliothis virescens is on record as <50%; with Spodoptera exigua, 70%; in the assay with Trichoplusia ni, 90%. Further, the mortality at 2.5 ppm with Tetranychus urticae is < 50%. Further, the mortality at 50 ppm with Aphis gossypii [1] is < 50%. In the assay on Bemisia tabaci [2], the mortality entry was “inactive”.
With `Cc1cc(-c2ccc(C(F)(F)F)cc2)sc1-c1nc(-c2c(F)cccc2Cl)nn1C`, the mortality was 90% in the assay on Heliothis virescens, 90% in the assay on Spodoptera exigua, <50% in the assay with Bemisia tabaci [3] and 90% in the assay with Trichoplusia ni. The mortality at 2.5 ppm with Tetranychus urticae was 90%. Also, in the assay with Aphis gossypii [1], the mortality at 50 ppm is < 50%.
Regarding `Cc1cc(-c2ccc(OC(F)(F)C(Cl)Cl)cc2)sc1-c1nc(-c2c(F)cccc2Cl)nn1C`, the mortality with Heliothis virescens came out at 90%; with Spodoptera exigua it was 90%; in the assay on Bemisia tabaci [3] it was 50%; with Trichoplusia ni, 80%. Also, in the assay with Tetranychus urticae, the mortality at 2.5 ppm worked out at 90%. For the same compound, the mortality at 50 ppm in the assay on Aphis gossypii [1] turned out to be 90%.
`Cc1sc(-c2nc(-c3c(F)cccc3Cl)nn2C)c(C)c1-c1ccc(OC(F)(F)C(F)Cl)cc1` (stereo not given): the mortality in the assay on Heliothis virescens was 80%; in the assay on Spodoptera exigua, 80%; in the assay with Bemisia tabaci [3], 80%; in the assay with Trichoplusia ni, <50%. Besides, the mortality at 2.5 ppm with Tetranychus urticae worked out at 70%. Also, the mortality at 50 ppm with Aphis gossypii [1] was < 50%.
In the case of `Cn1nc(-c2c(F)cccc2Cl)nc1-c1sc(-c2ccc(OC(F)(F)F)cc2)c(Br)c1Cl`, the mortality is given as 90% with Heliothis virescens, 90% in the assay with Spodoptera exigua, <50% with Bemisia tabaci [3] and 70% in the assay with Trichoplusia ni. In the assay with Tetranychus urticae, the mortality at 2.5 ppm was 80%. In addition, in the assay with Aphis gossypii [1], the mortality at 50 ppm was 60%.
On to `Cc1cc(C2CCC(OC(F)(F)C(F)Cl)CC2)sc1-c1nc(-c2c(F)cccc2Cl)nn1C` (stereo not given), for which the mortality in the assay with Heliothis virescens, in the assay on Spodoptera exigua and in the assay on Trichoplusia ni was 90% in each case. Besides, in the assay on Tetranychus urticae, the mortality at 2.5 ppm was found to be 80%. Besides, the mortality at 50 ppm in the assay on Aphis gossypii [1] was < 50%.
As for `Cc1sc(-c2nc(-c3c(F)cccc3Cl)nn2C)c(C)c1-c1ccc(OC(F)(F)C(F)Br)cc1` (stereo not given), the figures for the mortality in the assay with Heliothis virescens, in the assay on Spodoptera exigua and in the assay with Bemisia tabaci [3] were 90%, 80% and 80%, respectively. In addition, the mortality at 2.5 ppm in the assay on Tetranychus urticae is 80%. Further, the mortality at 50 ppm in the assay with Aphis gossypii [1] amounted to 50%.
Take `Cn1nc(-c2c(F)cccc2Cl)nc1-c1sc(-c2ccc(Br)cc2)cc1Cl`: the mortality in the assay on Heliothis virescens came to 90%; in the assay on Spodoptera exigua, 80%; in the assay with Trichoplusia ni, 90%. Further, the mortality at 2.5 ppm in the assay on Tetranychus urticae was found to be 90%. Also, the mortality at 50 ppm in the assay with Aphis gossypii [1] was 90%. The mortality entry in the assay on Bemisia tabaci [2] was “inactive”.
Regarding `Cc1sc(-c2nc(-c3c(F)cccc3Cl)nn2C)c(C)c1-c1ccc(OC(F)(F)F)cc1`, the mortality with Heliothis virescens was 90%; in the assay with Spodoptera exigua, 90%; in the assay on Bemisia tabaci [3] it was 60%; in the assay on Trichoplusia ni, <50%. For the same compound, the mortality at 2.5 ppm with Tetranychus urticae was found to be 90%. In addition, the mortality at 50 ppm in the assay on Aphis gossypii [1] turned out to be 70%.
Turning to `Cn1nc(-c2c(F)cccc2F)nc1-c1sc(-c2ccc(OC(F)(F)F)cc2)cc1Cl`, the values for the mortality with Heliothis virescens, with Spodoptera exigua and in the assay on Trichoplusia ni were 80%, <50% and <50%, respectively. Further, in the assay with Tetranychus urticae, the mortality at 2.5 ppm worked out at 90%. For the same compound, the mortality at 50 ppm with Aphis gossypii [1] is 80%. Further, in the assay on Bemisia tabaci [2], the mortality entry was “inactive”.
Turning to `Cn1nc(-c2c(F)cccc2Cl)nc1-c1sc(-c2ccc(C(F)(F)F)cc2)cc1Cl`, the mortality in the assay on Heliothis virescens is listed as 90%; in the assay with Spodoptera exigua, 60%; with Bemisia tabaci [3], <50%; with Trichoplusia ni, 90%. Moreover, the mortality at 2.5 ppm in the assay with Tetranychus urticae was 90%. Besides, the mortality at 50 ppm in the assay on Aphis gossypii [1] worked out at 90%.
Regarding `Cc1sc(-c2nc(-c3c(F)cccc3Cl)nn2C)c(C)c1-c1ccc(Cl)cc1`, the mortality with Heliothis virescens is 90%; in the assay on Spodoptera exigua it was 80%; in the assay with Trichoplusia ni it was <50%. The mortality at 2.5 ppm in the assay with Tetranychus urticae is 80%. For the same compound, the mortality at 50 ppm in the assay on Aphis gossypii [1] came out at 50%. Also, the mortality entry with Bemisia tabaci [2] was “inactive”.
For `Cc1cc(-c2cccc(C(F)(F)F)c2F)sc1-c1nc(-c2c(F)cccc2Cl)nn1C`, the mortality is listed as 90% in the assay with Heliothis virescens, 60% in the assay on Spodoptera exigua and 90% in the assay with Trichoplusia ni. In the assay on Tetranychus urticae, the mortality at 2.5 ppm was found to be 90%. Besides, in the assay on Aphis gossypii [1], the mortality at 50 ppm was 60%. Further, the mortality entry with Bemisia tabaci [2] is “inactive”.
Consider `CCOc1ccc(-c2csc(-c3nc(-c4c(F)cccc4Cl)nn3C)c2C)cc1`, for which the mortality with Heliothis virescens was 90%; with Spodoptera exigua, 80%; with Bemisia tabaci [3] it was 90%; in the assay with Trichoplusia ni, 90%. In addition, in the assay with Tetranychus urticae, the mortality at 2.5 ppm was found to be 90%. Moreover, the mortality at 50 ppm in the assay with Aphis gossypii [1] amounted to 50%.
With `CSc1ccc(-c2cc(Cl)c(-c3nc(-c4c(F)cccc4Cl)nn3C)s2)cc1`, the mortality in the assay with Heliothis virescens was 90%; with Spodoptera exigua, 60%; in the assay with Bemisia tabaci [3], <50%; with Trichoplusia ni, 80%. Besides, the mortality at 2.5 ppm in the assay with Tetranychus urticae is 90%. The mortality at 50 ppm with Aphis gossypii [1] turned out to be 60%.
As for `Cc1c(-c2ccc(OC(F)(F)C(Cl)Cl)cc2)csc1-c1nc(-c2c(F)cccc2Cl)nn1C`, the mortality is 90% in the assay on Heliothis virescens, 90% with Spodoptera exigua, 90% in the assay on Bemisia tabaci [3] and <50% with Trichoplusia ni. The mortality at 2.5 ppm in the assay on Tetranychus urticae worked out at 90%. Further, the mortality at 50 ppm in the assay with Aphis gossypii [1] worked out at 90%.
`CCOc1ccc(-c2sc(-c3nc(-c4c(F)cccc4Cl)nn3C)c(Cl)c2Br)cc1`: the mortality in the assay with Heliothis virescens was 90%; in the assay with Spodoptera exigua, 90%; in the assay on Trichoplusia ni, <50%. In addition, the mortality at 2.5 ppm in the assay on Tetranychus urticae was 60%. The mortality at 50 ppm with Aphis gossypii [1] was < 50%. For the same compound, the mortality result with Bemisia tabaci [2] was “inactive”.
Turning to `Cc1c(-c2ccc(OC(F)(F)C(F)Cl)cc2)sc(-c2nc(-c3c(F)cccc3Cl)nn2C)c1C` (stereo not given), the mortality with Heliothis virescens was 90%; in the assay on Spodoptera exigua, 60%; with Bemisia tabaci [3] it was 60%; in the assay with Trichoplusia ni, <50%. Besides, in the assay with Tetranychus urticae, the mortality at 2.5 ppm amounted to 80%. The mortality at 50 ppm with Aphis gossypii [1] was < 50%.
With `Cc1cc(-c2ccc(C(C)C)cc2)sc1-c1nc(-c2c(F)cccc2Cl)nn1C`, the mortality in the assay on Heliothis virescens is on record as 90%; in the assay on Spodoptera exigua, 70%; with Trichoplusia ni, 90%. Also, the mortality at 2.5 ppm in the assay with Tetranychus urticae stood at 90%. Also, the mortality at 50 ppm in the assay on Aphis gossypii [1] is < 50%. The mortality entry in the assay on Bemisia tabaci [2] is “inactive”.
With `Cc1cc(-c2ccc(OC(C)C)cc2)sc1-c1nc(-c2c(F)cccc2Cl)nn1C`, the mortality was found to be 80% with Heliothis virescens, 60% with Spodoptera exigua and 90% in the assay with Trichoplusia ni. The mortality result with Aphis gossypii [4] is “inactive”. Further, the mortality at 2.5 ppm in the assay with Tetranychus urticae was found to be 60%.
In the case of `Cc1c(-c2ccc(OC(F)=C(Cl)Cl)cc2)csc1-c1nc(-c2c(F)cccc2Cl)nn1C`, the mortality in the assay on Heliothis virescens is 90%; with Spodoptera exigua, 80%; in the assay on Bemisia tabaci [3], 70%; in the assay with Trichoplusia ni it was <50%. Besides, in the assay on Tetranychus urticae, the mortality at 2.5 ppm was found to be 90%. Further, in the assay with Aphis gossypii [1], the mortality at 50 ppm amounted to 70%.
